In patent US10130616B2, “Securinine and norsecurinine analogue compounds for the treatment of myeloid disorders” (Case Western Reserve University, priority 2013, dated 2018):
Read-outs that look alike come from different tables or passages of the source.

What was measured:
[1] = tested on: CD14 and CD11b; details: flow cytometry; cited from earlier work
[2] = tested on: HL-60 leukemic cells; details: HL-60 cells; from U.S. patent application Ser. No. 14/029,066; cited from earlier work
[3] = tested on: MOLT3; assay: Growth inhibition of MOLT3 cells; format: cell-based
Description: (§1) In certain embodiments, securinine and norsecurinine analogues were administered to cancerous cells, such as acute myeloblastic leukemia cells (e.g., MOLT3 and OCI-AML3) and growth inhibition was analyzed. The analogues were effective in inhibiting myeloid growth in addition to promoting differentiation, and provide for reduced proliferation of acute myeloblastic leukemia cells (Table 2).

[4] = tested on: HL-60 cells; assay: Growth of HL-60 cells (IC50); format: cell-based, human; details: value bracketed between tested concentrations, read-out: HL-60, IC50
[5] = tested on: OCI-AML3; assay: Growth inhibition of OCI-AML3 cells; format: cell-based
Description: as §1

[6] = tested on: HL-60 leukemic cells; assay: Nitroblue Tetrazolium (NBT) reduction assay, differentiation of HL-60 leukemic cells; format: cell-based, human
Text: In an aspect of the present disclosure, the compounds of the disclosure can be identified using a novel high-throughput screen that is biased to identify agents that have both a high potency and low toxicity in a myeloid disorder disease model, such as an animal or cell model. In some embodiments, the high-throughput screen measures the differentiation of HL-60 leukemic cells using a quantitative nitroblue tetrazolium (NBT) reduction assay. Screening HL-60 cells, human promyelocytic cells, is advantageous as they have been used extensively as a cell line to study myeloid differentiation. Though promyelocytic cells, HL-60 cells were derived from a patient with acute myeloblastic leukemia with maturation, FAB-M2.
This technique has also been widely exploited in HL-60 cells to analyze myelomonocytic differentiation.
The NBT screen works due to changes in the oxidoreductases during differentiation that lead to increases in rates of NBT reduction. NBT is reduced due to the production of superoxide that is catalyzed by an NADPH oxidase. […] NBT is reduced by superoxide from a soluble yellow compound to insoluble blue formazan granules whose formation can be monitored spectrophotometrically at 560 nm as the unreduced dye has minimal absorbance at this wavelength. A quantitative NBT reduction assay is ideal for this type of screen as it is simple, sensitive, quantitative, requires minimal cells, has been proven to have low well to well variability, and the amount of reduced NBT is proportional to the number of cells reducing the dye as well as the amount reduced by each cell.
To discover novel AML differentiation-inducing compounds a rapid high-throughput screen (HTS) was developed and optimized. The screen was designed to be biased to identify compounds that, unlike the majority of known differentiation-inducing agents, have both high potency and low toxicity. The screen measured the differentiation of HL-60 leukemic cells using a quantitative Nitroblue Tetrazolium (NBT) reduction assay, a test that is used extensively as a measure of functional myelomonocytic differentiation. The basis for the screen is unreduced NBT exists as a yellow soluble dye. Differentiated leukemic cells are capable of producing a respiratory burst that can reduce NBT into a blue insoluble compound that can be measured spectrophotometrically. This forward chemical genetics approach allowed the discovery of novel compounds that can act on targets not previously known to be “drugable.” As only live cells can reduce NBT, the screen is biased in identifying relatively nontoxic compounds.
To perform the screen, duplicate plates of HL-60 cells were cultured at a density of 5×10^4 cells/mL with 10 μM of each compound in 96 well plates for 5 days. To determine the relative capability for a compound to induce differentiation compared to known potent inducers, each plate destined for the NBT reduction assay included wells with 0.1% DMSO (vehicle control) and 1 μM ATRA. This approach eliminates any slight day to day variation in NBT reduction values and allows the discovery of compounds with similar or greater efficacy to ATRA. Differentiation was determined in the 96 well plates by incubating the cells with 1 mg/mL of NBT and 200 ng/mL of PMA as the stimulant for the respiratory burst for 35 minutes at 37° C. The reaction was then stopped with HCl and the formazan solubilized with DMSO. Finally, the reaction mixture was read spectrophotometrically at 560 nm in a plate reader.
The securinine and norsecurinine analogues were tested and evaluated on their abilities to affect differentiation and growth of HL-60 cells (Table 1).

[7] = tested on: HL-60 cells; details: cited from earlier work
[8] = tested on: a variety of leukemic cell lines; details: cited from earlier work
[9] = tested on: 60 cancer cell lines, normal human lymphocytes, normal human bone marrow, mouse embryonic fibroblasts, and human umbilical vein endothelial cells; details: 60 cancer cell lines and normal cells; cited from earlier work
[10] = tested on: c-myc; details: cited from earlier work
[11] = tested on: p21; details: cited from earlier work
[12] = tested on: CEBPβ; details: cited from earlier work
[13] = tested on: leukemic cells; details: cited from earlier work
[14] = tested on: p44/p42 and p38; details: cited from earlier work
[15] = tested on: cell cycle (G0/G1); details: cited from earlier work
[16] = Homo sapiens, MOLT-3, MOLT3 cells, read-out: MOLT3 IC50
[17] = Homo sapiens, HL-60, HL-60 cells
[18] = Homo sapiens, OCI-AML-3, OCI-AML3 cells, read-out: OCI-AML3 IC50
[19] = Homo sapiens, HL-60 cells, value bracketed between tested concentrations, read-out: HL-60, Dif50
[20] = Homo sapiens, HL-60, read-out: HL-60, Dif50
[21] = HL-60 cells, value bracketed between tested concentrations, read-out: HL-60, Dif50

| SMILES | IC50 [3, 16] [nM] | IC50 [4, 17] [nM] | IC50 [5, 18] [nM] | other results |
| --- | --- | --- | --- | --- |
| CC1=C(/C=C/C(C)=C/C=C/C(C)=C/C(=O)O)C(C)(C)CCC1 [ATRA, all-trans-retinoic acid] | – | – | – | induction of cell surface markers CD14 and CD11b [1]: primarily induces CD11b; cells differentiated, NBT reduction assay [2]: ~95% |
| O=C1C=C2C(C#Cc3ccccc3)=C[C@@H]3C[C@@]2(O1)[C@H]1CCCCN31 [Compound 17] | 70 | 70 to 156 | 80 | – |
| CN(C)CC#CC1=C[C@@H]2C[C@@]3(OC(=O)C=C13)[C@H]1CCCCN21 [Compound 18] | 70 | 70 to 156 | 90 | – |
| CCOC#CC1=C[C@@H]2C[C@@]3(OC(=O)C=C13)[C@H]1CCCCN21 [Compound 22] | 196 | 310 to 625 | 220 | – |
| N#CCCCC#CC1=C[C@@H]2C[C@@]3(OC(=O)C=C13)[C@H]1CCCCN21 [Compound 26] | 160 | – | 195 | – |
| C=C(C)CC#CC1=C[C@@H]2C[C@@]3(OC(=O)C=C13)[C@H]1CCCCN21 [Compound 28] | 165 | 156 to 310 | 200 | – |
| COc1ccc(C#CC2=C[C@@H]3C[C@@]4(OC(=O)C=C24)[C@H]2CCCCN32)cc1 [Compound 29] | 60 | 39 to 78 | 80 | – |
| O=C1C=C2C(C#Cc3ccsc3)=C[C@@H]3C[C@@]2(O1)[C@H]1CCCCN31 [Compound 31] | 60 | 156 to 310 | 75 | – |
| CCN(CC)CC#CC1=C[C@@H]2C[C@@]3(OC(=O)C=C13)[C@H]1CCCCN21 [Compound 35] | 130 | – | 110 | – |
| CN(C)c1ccc(C#CC2=C[C@@H]3C[C@@]4(OC(=O)C=C24)[C@H]2CCCCN32)cc1 [Compound 36] | 115 | 156 to 310 | 105 | – |
| CCCN(CC#CC1=C[C@@H]2C[C@@]3(OC(=O)C=C13)[C@H]1CCCCN21)CCC [Compound 39] | 80 | – | 70 | – |
| COc1ccc2cc(C#CC3=C[C@@H]4C[C@@]5(OC(=O)C=C35)[C@H]3CCCCN43)ccc2c1 [Compound 40] | 90 | – | 105 | – |
| O=C1C=C2C(C#Cc3cc4ccccc4c4ccccc34)=C[C@@H]3C[C@@]2(O1)[C@H]1CCCCN31 [Compound 41] | – | – | – | IC50 ([3]; Homo sapiens, MOLT-3, read-out: MOLT3 IC50 (nM)): 150 nM; IC50 ([5]; Homo sapiens, OCI-AML-3, read-out: OCI-AML3 IC50 (nM)): 180 nM |
| N#Cc1ccc(C#CC2=C[C@@H]3C[C@@]4(OC(=O)C=C24)[C@H]2CCCCN32)cc1 [Compound 46] | 145 | 310 to 625 | 205 | – |
| COc1cccc(C#CC2=C[C@@H]3C[C@@]4(OC(=O)C=C24)[C@H]2CCCCN32)c1 [Compound 47] | 150 | 310 to 625 | 215 | – |
| O=C1C=C2C(C#Cc3ccc(OC(F)(F)F)cc3)=C[C@@H]3C[C@@]2(O1)[C@H]1CCCCN31 [Compound 48] | > 300 | 310 to 625 | > 300 | – |
| CC(C)(C)OC(=O)NCCSC1CC2=CC(=O)O[C@@]23C[C@@H]1N1CCCC[C@@H]13 (stereo partly shown) [Compound 95] | – | – | – | EC50 [6, 19]: 15000 to 20000 nM |
| CSC1CC2=CC(=O)O[C@@]23C[C@@H]1N1CCCC[C@@H]13 (stereo partly shown) [Compound 96] | – | – | – | EC50 [6, 20]: 10000 to 15000 nM |
| O=C1C=C2CC(SC3CCCC3)[C@@H]3C[C@@]2(O1)[C@H]1CCCCN31 (stereo partly shown) [Compound 97] | – | – | – | EC50 [6, 20]: 15000 to 20000 nM |
| O=C1C=C2CC(n3ccnc3)[C@@H]3C[C@@]2(O1)[C@H]1CCCCN31 (stereo partly shown) [Compound 99] | – | – | – | EC50 [6, 19]: 15000 to 20000 nM |
| CC(C)NCCSC1CC2=CC(=O)O[C@@]23C[C@@H]1N1CCCC[C@@H]13 (stereo partly shown) [Compound 100] | – | – | – | EC50 [6, 19]: 15000 to 20000 nM |
| O=C1C=C2C[C@H](SCC(F)(F)F)[C@@H]3C[C@@]2(O1)[C@H]1CCCCN31 [INVS-MG-5B] | – | – | – | EC50 [6, 21]: > 30000 nM |
| COc1ccc(CN[C@@H]2CC3=CC(=O)O[C@@]34C[C@@H]2N2CCCC[C@@H]24)cc1 [INVS-MG-86C] | – | – | – | EC50 [6, 21]: > 30000 nM |
| CO[C@H]1CC2=CC(=O)O[C@@]23C[C@@H]1N1CCCC[C@@H]13 [INVS-MG-97-IIB] | – | – | – | EC50 [6, 21]: > 30000 nM |
| O=C1C=C2C(C#Cc3ccsc3)=C[C@@H]3C[C@@]2(O1)[C@H]1CCCCN31 [INVS-MG-136-III] | – | – | – | IC50 ([3]; MOLT3 cells, read-out: MOLT3 IC50): 100 nM; IC50 ([4]; HL-60 cells): < 70 nM; IC50 ([5]; OCI-AML3 cells, read-out: OCI-AML3 IC50): 115 nM |
| C[N+]12CCCC[C@@H]1[C@]13C[C@H]2C=CC1=CC(=O)O3 (stereo partly shown) [Sec-1] | – | – | – | EC50 [6, 21]: > 30000 nM |
| O=C1C=C2C=C[C@@H]3C[C@@]2(O1)[C@H]1CCCCN31 [Securinine, (6S,11aR,11bS)-9,10,11,11a-tetrahydro-8H-6,11b-methanofuro[2,3-c]pyrido[1,2-a]azepin-2(6H)-one] | – | – | – | proliferation of HL-60 cells [7]: potently inhibits the proliferation of HL-60 cells; induction of cell surface markers CD14 and CD11b [1]: induce CD14 and CD11b; differentiation of leukemic cell lines [8]: can differentiate a variety of leukemic cell lines; toxicity [9]: low toxicity; c-myc expression [10]: potently downregulated; cells differentiated, NBT reduction assay [2]: ~95%; p21 protein [11]: upregulated; EC50 [6, 20]: 10000 to 15000 nM; CEBPβ expression [12]: time-dependent upregulation; morphologic changes [13]: clear morphologic changes suggestive of monocytic differentiation; phosphorylation of p44/p42 and p38 [14]: induces rapid phosphorylation of p44/p42 and p38; cell cycle distribution [15]: accumulation of cells in G0/G1 |
| C=C1CC[C@H](O)C/C1=C/C=C1\CCC[C@]2(C)[C@@H]([C@H](C)CCCC(C)C)CC[C@@H]12 [vitamin D3] | – | – | – | induction of cell surface markers CD14 and CD11b [1]: induce CD14 and CD11b |
